Assay results reported in US20240092784A1, “CONDENSED HETEROCYCLIC COMPOUND” (NISSAN CHEMICAL CORPORATION, priority 2020, published 2024).
pIC50: −log10 of the molar value.

Biological target: human SPR (Homo sapiens (Human), UniProt P35270)
Assay: Evaluation Example 2: Measurement of human SPR inhibitory activity (seven concentrations, sepiapterin absorbance at 420 nm)
Format: biochemical
Details: Evaluation Example 2, seven concentrations 0.14 nM to 100 nM, 240 minutes at room temperature, read-out: IC50
Procedure, shortened: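 Reactions ran 240 min at room temperature in 100 mM Tris-HCl pH 7.5 with 0.01% BSA. They contained tag-cleaved, E. coli-expressed full-length human SPR (diluted to 150 ng/mL), seven compound concentrations from 0.14 to 100 nM, and sepiapterin/NADPH added as a 120 μM/160 μM solution. Inhibition was calculated from sepiapterin absorbance at 420 nm.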

Chain of human SPR (P35270 whole entry): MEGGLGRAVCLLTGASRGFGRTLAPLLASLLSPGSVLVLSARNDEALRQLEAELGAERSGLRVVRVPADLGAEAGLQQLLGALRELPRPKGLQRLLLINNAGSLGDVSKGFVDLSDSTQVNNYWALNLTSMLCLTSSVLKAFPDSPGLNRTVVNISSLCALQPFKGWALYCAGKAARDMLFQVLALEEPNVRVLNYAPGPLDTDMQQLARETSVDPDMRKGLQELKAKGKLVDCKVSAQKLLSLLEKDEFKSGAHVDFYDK

## CC(=O)N1CCC2(CCCN2C(=O)/C=C/c2c(C)nn3c(O)c(C(=O)NC4CC4)c(=O)n(CC(C)C)c23)CC1 [Synthesis Example 665, (E)-3-(3-(8-Acetyl-1,8-diazaspiro[4.5]decan-1-yl)-3-oxoprop-1-en-1-yl)-N-cyclopropyl-7-hydroxy-4-isobutyl-2-methyl-5-oxo-4,5-dihydropyrazolo[1,5-a]pyrimidine-6-carboxamide]
  pIC50: 9.04

## Cc1nn2c(O)c(C(=O)NC3CC3)c(=O)n(CC(C)C)c2c1/C=C/C(=O)N1CCCC12CCN(CC(F)(F)F)CC2 [Synthesis Example 666, (E)-N-Cyclopropyl-7-hydroxy-4-isobutyl-2-methyl-5-oxo-3-(3-oxo-3-(8-(2,2,2-trifluoroethyl)-1,8-diazaspiro[4.5]decan-1-yl)prop-1-en-1-yl)-4,5-dihydropyrazolo[1,5-a]pyrimidine-6-carboxamide]
  pIC50: 8.67

## CCN1CCC2(CCCN2C(=O)/C=C/c2c(C)nn3c(O)c(C(=O)NC4CC4)c(=O)n(CC(C)C)c23)CC1 [Synthesis Example 667, (E)-N-Cyclopropyl-3-(3-(8-ethyl-1,8-diazaspiro[4.5]decan-1-yl)-3-oxoprop-1-en-1-yl)-7-hydroxy-4-isobutyl-2-methyl-5-oxo-4,5-dihydropyrazolo[1,5-a]pyrimidine-6-carboxamide]
  pIC50: 9.03

## Cc1nn2c(O)c(C(=O)NC3CC3)c(=O)n(CC(C)C)c2c1/C=C/C(=O)N1CCc2cc(F)ccc21 [Synthesis Example 668, (E)-N-Cyclopropyl-3-(3-(5-fluoroindolin-1-yl)-3-oxoprop-1-en-1-yl)-7-hydroxy-4-isobutyl-2-methyl-5-oxo-4,5-dihydropyrazolo[1,5-a]pyrimidine-6-carboxamide]
  pIC50: 8.10

## Cc1nn2c(O)c(C(=O)NC3CC3)c(=O)n(CC(C)C)c2c1/C=C/C(=O)N1CCc2cc(C#N)ccc21 [Synthesis Example 669, (E)-3-(3-(5-Cyanoindolin-1-yl)-3-oxoprop-1-en-1-yl)-N-cyclopropyl-7-hydroxy-4-isobutyl-2-methyl-5-oxo-4,5-dihydropyrazolo[1,5-a]pyrimidine-6-carboxamide]
  pIC50: 8.74

## Cc1nn2c(O)c(C(=O)NC3CC3)c(=O)n(CC(C)C)c2c1/C=C/C(=O)N1CCc2cc(Br)ccc21 [Synthesis Example 670, (E)-3-(3-(5-Bromoindolin-1-yl)-3-oxoprop-1-en-1-yl)-N-cyclopropyl-7-hydroxy-4-isobutyl-2-methyl-5-oxo-4,5-dihydropyrazolo[1,5-a]pyrimidine-6-carboxamide]
  pIC50: 7.94

## Cc1nn2c(O)c(C(=O)NC3CC3)c(=O)n(CC(C)C)c2c1/C=C/C(=O)N1CCN(C2CC(F)(F)C2)C[C@@H]1C [Synthesis Example 671, (S,E)-N-Cyclopropyl-3-(3-(4-(3,3-difluorocyclobutyl)-2-methylpiperazin-1-yl)-3-oxoprop-1-en-1-yl)-7-hydroxy-4-isobutyl-2-methyl-5-oxo-4,5-dihydropyrazolo[1,5-a]pyrimidine-6-carboxamide]
  pIC50: 8.83

## Cc1nn2c(O)c(C(=O)NC3CC3)c(=O)n(CC(C)C)c2c1/C=C/C(=O)N1CCC(F)(F)CC1C (centres unmarked) [Synthesis Example 672, (E)-N-Cyclopropyl-3-(3-(4,4-difluoro-2-methylpiperidin-1-yl)-3-oxoprop-1-en-1-yl)-7-hydroxy-4-isobutyl-2-methyl-5-oxo-4,5-dihydropyrazolo[1,5-a]pyrimidine-6-carboxamide]
  pIC50: 9.07

## Cc1nn2c(O)c(C(=O)NC3CC3)c(=O)n(CC(C)C)c2c1/C=C/C(=O)N1CCC[C@@H]1c1ccccc1 [Synthesis Example 673, (R,E)-N-Cyclopropyl-7-hydroxy-4-isobutyl-2-methyl-5-oxo-3-(3-oxo-3-(2-phenylpyrrolidin-1-yl)prop-1-en-1-yl)-4,5-dihydropyrazolo[1,5-a]pyrimidine-6-carboxamide]
  pIC50: 8.87

## Cc1nn2c(O)c(C(=O)NC3CC3)c(=O)n(CC(C)C)c2c1/C=C/C(=O)N1CCC[C@H]1c1ccccc1 [Synthesis Example 674, (S,E)-N-Cyclopropyl-7-hydroxy-4-isobutyl-2-methyl-5-oxo-3-(3-oxo-3-(2-phenylpyrrolidin-1-yl)prop-1-en-1-yl)-4,5-dihydropyrazolo[1,5-a]pyrimidine-6-carboxamide]
  pIC50: 8.87

## Cc1nn2c(O)c(C(=O)NC3CC3)c(=O)n(CC(C)C)c2c1/C=C/C(=O)N1CCOc2cnccc21 [Synthesis Example 675, (E)-N-Cyclopropyl-3-(3-(2,3-dihydro-1H-pyrido[3,4-b][1,4]oxazin-1-yl)-3-oxoprop-1-en-1-yl)-7-hydroxy-4-isobutyl-2-methyl-5-oxo-4,5-dihydropyrazolo[1,5-a]pyrimidine-6-carboxamide]
  pIC50: 9.00

## Cc1nn2c(O)c(C(=O)NC3CC3)c(=O)n(CC(C)C)c2c1/C=C/C(=O)N1CCOc2ncccc21 [Synthesis Example 676, (E)-N-Cyclopropyl-3-(3-(2,3-dihydro-1H-pyrido[2,3-b][1,4]oxazin-1-yl)-3-oxoprop-1-en-1-yl)-7-hydroxy-4-isobutyl-2-methyl-5-oxo-4,5-dihydropyrazolo[1,5-a]pyrimidine-6-carboxamide]
  pIC50: 9.04

## Cc1nn2c(O)c(C(=O)NC3CC3)c(=O)n(CC(C)C)c2c1/C=C/C(=O)N1CCC[C@H]1C(C)(C)O [Synthesis Example 677, (S,E)-N-Cyclopropyl-7-hydroxy-3-(3-(2-(2-hydroxypropan-2-yl)pyrrolidin-1-yl)-3-oxoprop-1-en-1-yl)-4-isobutyl-2-methyl-5-oxo-4,5-dihydropyrazolo[1,5-a]pyrimidine-6-carboxamide]
  pIC50: 9.02

## Cc1nn2c(O)c(C(=O)NC3CC3)c(=O)n(CC(C)C)c2c1/C=C/C(=O)N1CCCC12CCN(C(C)C)CC2 [Synthesis Example 678, (E)-N-Cyclopropyl-7-hydroxy-4-isobutyl-3-(3-(8-isopropyl-1,8-diazaspiro[4.5]decan-1-yl)-3-oxoprop-1-en-1-yl)-2-methyl-5-oxo-4,5-dihydropyrazolo[1,5-a]pyrimidine-6-carboxamide]
  pIC50: 8.93

## Cc1nn2c(O)c(C(=O)NC3CC3)c(=O)n(CC(C)C)c2c1/C=C/C(=O)N1CCO[C@H](C)C1 [Synthesis Example 679, (R,E)-N-Cyclopropyl-7-hydroxy-4-isobutyl-2-methyl-3-(3-(2-methylmorpholino)-3-oxoprop-1-en-1-yl)-5-oxo-4,5-dihydropyrazolo[1,5-a]pyrimidine-6-carboxamide]
  pIC50: 9.03

## Cc1nn2c(O)c(C(=O)NC3CC3)c(=O)n(CC(C)C)c2c1/C=C/C(=O)N1CCO[C@@H](C)C1 [Synthesis Example 680, (S,E)-N-Cyclopropyl-7-hydroxy-4-isobutyl-2-methyl-3-(3-(2-methylmorpholino)-3-oxoprop-1-en-1-yl)-5-oxo-4,5-dihydropyrazolo[1,5-a]pyrimidine-6-carboxamide]
  pIC50: 9.09

## Cc1nn2c(O)c(C(=O)NC3CC3)c(=O)n(CC(C)C)c2c1/C=C/C(=O)N(C)CC#N [Synthesis Example 681, (E)-3-(3-((Cyanomethyl)(methyl)amino)-3-oxoprop-1-en-1-yl)-N-cyclopropyl-7-hydroxy-4-isobutyl-2-methyl-5-oxo-4,5-dihydropyrazolo[1,5-a]pyrimidine-6-carboxamide]
  pIC50: 9.19
